Test results as given in BindingDB's records for doi:10.1038/nchembio.421 (Novartis Institutes for BioMedical Research, 2010).

Molecular target: T1, Farnesyl pyrophosphate synthase (Homo sapiens, UniProt P14324)
T1 sequence (P14324 whole entry): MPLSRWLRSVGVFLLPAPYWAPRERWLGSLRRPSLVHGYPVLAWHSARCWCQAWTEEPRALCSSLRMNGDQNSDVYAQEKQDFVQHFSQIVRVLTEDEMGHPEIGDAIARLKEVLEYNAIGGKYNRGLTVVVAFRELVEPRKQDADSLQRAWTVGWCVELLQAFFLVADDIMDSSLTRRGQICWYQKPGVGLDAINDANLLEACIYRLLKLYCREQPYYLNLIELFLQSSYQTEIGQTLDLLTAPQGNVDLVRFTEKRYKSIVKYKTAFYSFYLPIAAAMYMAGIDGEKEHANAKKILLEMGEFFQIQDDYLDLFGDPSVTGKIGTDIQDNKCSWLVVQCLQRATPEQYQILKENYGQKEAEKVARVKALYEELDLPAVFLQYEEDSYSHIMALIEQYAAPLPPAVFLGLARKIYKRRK
Assay: Biophysical assay
Conditions: pH 7.4; 23 °C
From the text: A biophysical assay using NMR spectroscopy to identify fragments with higher binding affinity to human recombinant FPPS.

Compound | IC50 [µM]
O=C(O)Cc1sc2ccccc2c1Cl [2-(3-Chlorobenzo[b]thiophen-2-yl)acetic acid, 6] | 12
CC(C(=O)O)c1cc2c(Cl)cccc2s1 (centres undefined) [2-(4-Chlorobenzo[b]thiophen-2-yl)propanoic acid, 5] | 80
O=C(O)c1cc(Cn2c(C(=O)O)cc3ccc4ccccc4c32)on1 [5-((2-Carboxy-1H-benzo[g]indol-1-yl)methyl)isoxazole-3-carboxylic acid, 12] | 0.08
Cc1c(CC(=O)O)sc2ccc(Cl)cc12 [CID68686] | > 500
